According to paper PMC4774911, “Biochemical Screening of Five Protein Kinases from Plasmodium falciparum against 14,000 Cell-Active Compounds” (PLoS ONE, 2016):
Where “and” joins values, the source holds several entries; their conditions need not be identical. Identical values can stand only once.

Tests used:
Assay in all cases: biochemical
MAP2K5 = molecular target: T1, MAP2K5 (Homo sapiens, UniProt Q13163)
T1 sequence (Q13163 1-448): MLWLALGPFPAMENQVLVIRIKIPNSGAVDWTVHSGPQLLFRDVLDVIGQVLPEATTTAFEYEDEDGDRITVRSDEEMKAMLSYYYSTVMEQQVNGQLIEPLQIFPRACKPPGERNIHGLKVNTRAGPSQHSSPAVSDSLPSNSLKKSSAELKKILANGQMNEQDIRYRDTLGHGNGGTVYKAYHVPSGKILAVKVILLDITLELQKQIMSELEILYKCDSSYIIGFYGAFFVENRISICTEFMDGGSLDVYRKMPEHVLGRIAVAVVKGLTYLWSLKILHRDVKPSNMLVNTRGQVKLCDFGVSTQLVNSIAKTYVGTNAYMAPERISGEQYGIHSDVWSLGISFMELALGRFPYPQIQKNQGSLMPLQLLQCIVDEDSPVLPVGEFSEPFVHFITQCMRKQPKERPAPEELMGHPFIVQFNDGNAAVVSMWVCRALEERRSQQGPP

LYN = LYN (Homo sapiens, UniProt P07948)
Chain of LYN (P07948 whole entry): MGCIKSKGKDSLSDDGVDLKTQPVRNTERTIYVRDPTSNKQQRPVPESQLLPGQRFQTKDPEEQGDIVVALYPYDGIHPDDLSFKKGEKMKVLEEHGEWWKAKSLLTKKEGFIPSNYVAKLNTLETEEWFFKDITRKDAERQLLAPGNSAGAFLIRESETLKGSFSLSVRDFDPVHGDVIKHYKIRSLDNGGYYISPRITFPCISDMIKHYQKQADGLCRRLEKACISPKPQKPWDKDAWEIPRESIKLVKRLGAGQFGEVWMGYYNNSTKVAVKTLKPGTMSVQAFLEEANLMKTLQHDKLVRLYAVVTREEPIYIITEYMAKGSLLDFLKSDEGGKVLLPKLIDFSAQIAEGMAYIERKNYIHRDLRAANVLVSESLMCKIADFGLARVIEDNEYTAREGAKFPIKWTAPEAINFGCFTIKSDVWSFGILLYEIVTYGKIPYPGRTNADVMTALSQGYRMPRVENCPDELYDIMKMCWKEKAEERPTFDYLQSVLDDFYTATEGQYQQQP

CHEK2 = CHEK2 (Homo sapiens, UniProt O96017)
Chain of CHEK2 (O96017 whole entry): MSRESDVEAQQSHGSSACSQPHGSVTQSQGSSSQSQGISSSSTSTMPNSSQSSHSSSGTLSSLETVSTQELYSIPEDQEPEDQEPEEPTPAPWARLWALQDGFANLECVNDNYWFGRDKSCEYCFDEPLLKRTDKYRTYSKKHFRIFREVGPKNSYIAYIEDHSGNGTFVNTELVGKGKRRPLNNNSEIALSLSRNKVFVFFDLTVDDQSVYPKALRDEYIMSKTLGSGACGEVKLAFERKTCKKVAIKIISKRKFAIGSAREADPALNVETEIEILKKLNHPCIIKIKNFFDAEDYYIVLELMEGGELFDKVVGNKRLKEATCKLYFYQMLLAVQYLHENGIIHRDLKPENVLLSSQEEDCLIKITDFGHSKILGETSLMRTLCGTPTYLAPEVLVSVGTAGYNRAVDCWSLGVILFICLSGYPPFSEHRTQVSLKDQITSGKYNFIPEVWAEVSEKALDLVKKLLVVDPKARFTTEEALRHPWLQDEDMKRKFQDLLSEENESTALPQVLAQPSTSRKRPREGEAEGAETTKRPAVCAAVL

BMP2K = BMP2K (Homo sapiens, UniProt Q9NSY1)
Chain of BMP2K (Q9NSY1 whole entry): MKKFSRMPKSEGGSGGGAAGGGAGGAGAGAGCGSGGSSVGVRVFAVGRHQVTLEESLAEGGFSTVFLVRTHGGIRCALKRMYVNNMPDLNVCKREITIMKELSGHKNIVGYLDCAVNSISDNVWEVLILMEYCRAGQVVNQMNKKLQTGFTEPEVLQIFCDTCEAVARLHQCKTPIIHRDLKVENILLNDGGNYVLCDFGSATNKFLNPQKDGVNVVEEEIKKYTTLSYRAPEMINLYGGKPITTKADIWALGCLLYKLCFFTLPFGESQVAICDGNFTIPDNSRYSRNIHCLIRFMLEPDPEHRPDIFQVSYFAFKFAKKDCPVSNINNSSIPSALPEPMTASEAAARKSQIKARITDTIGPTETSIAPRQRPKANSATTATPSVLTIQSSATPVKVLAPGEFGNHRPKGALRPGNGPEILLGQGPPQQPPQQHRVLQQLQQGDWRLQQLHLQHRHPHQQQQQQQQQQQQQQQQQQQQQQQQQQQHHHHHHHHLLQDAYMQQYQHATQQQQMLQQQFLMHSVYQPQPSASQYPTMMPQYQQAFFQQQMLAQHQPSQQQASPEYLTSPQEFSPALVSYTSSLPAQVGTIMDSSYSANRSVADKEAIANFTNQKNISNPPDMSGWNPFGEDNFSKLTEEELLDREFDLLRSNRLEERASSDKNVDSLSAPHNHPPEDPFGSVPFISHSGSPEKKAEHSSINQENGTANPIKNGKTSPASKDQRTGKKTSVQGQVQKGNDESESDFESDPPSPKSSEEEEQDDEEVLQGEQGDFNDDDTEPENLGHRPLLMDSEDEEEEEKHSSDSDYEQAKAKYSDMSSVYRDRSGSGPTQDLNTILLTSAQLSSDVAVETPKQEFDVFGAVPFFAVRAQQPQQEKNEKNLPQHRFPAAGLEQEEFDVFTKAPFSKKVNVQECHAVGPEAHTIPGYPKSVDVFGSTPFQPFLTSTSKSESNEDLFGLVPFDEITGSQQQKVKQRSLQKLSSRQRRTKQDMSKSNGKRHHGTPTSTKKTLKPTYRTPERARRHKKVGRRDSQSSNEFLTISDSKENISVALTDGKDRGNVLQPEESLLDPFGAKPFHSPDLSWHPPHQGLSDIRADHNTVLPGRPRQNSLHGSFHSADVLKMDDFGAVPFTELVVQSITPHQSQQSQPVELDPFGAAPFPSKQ

AXL = molecular target: T2, AXL (Homo sapiens, UniProt P30530)
T2 sequence (P30530 1-894): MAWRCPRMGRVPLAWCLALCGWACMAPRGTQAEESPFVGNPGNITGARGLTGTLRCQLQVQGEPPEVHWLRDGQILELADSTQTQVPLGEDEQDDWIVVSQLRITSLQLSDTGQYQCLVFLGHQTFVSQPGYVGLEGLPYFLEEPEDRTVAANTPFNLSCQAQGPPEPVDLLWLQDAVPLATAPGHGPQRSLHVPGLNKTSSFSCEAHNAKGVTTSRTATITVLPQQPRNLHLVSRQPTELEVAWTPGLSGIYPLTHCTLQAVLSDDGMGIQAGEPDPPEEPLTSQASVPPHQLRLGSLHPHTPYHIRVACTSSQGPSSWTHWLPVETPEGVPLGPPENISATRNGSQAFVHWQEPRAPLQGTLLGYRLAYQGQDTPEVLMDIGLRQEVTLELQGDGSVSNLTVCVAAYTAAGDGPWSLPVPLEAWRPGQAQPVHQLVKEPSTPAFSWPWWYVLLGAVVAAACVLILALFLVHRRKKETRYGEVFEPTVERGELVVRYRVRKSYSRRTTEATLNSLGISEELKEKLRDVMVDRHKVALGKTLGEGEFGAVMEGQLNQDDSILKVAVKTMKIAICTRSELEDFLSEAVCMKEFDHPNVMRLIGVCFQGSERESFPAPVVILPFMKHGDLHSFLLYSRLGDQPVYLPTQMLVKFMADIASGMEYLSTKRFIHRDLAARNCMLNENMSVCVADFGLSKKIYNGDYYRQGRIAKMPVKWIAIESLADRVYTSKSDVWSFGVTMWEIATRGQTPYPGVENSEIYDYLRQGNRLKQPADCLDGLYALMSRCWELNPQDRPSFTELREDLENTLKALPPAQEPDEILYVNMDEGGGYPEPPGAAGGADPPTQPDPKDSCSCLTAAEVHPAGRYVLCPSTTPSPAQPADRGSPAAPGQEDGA

SRC = SRC (Homo sapiens, UniProt P12931)
Chain of SRC (P12931 whole entry): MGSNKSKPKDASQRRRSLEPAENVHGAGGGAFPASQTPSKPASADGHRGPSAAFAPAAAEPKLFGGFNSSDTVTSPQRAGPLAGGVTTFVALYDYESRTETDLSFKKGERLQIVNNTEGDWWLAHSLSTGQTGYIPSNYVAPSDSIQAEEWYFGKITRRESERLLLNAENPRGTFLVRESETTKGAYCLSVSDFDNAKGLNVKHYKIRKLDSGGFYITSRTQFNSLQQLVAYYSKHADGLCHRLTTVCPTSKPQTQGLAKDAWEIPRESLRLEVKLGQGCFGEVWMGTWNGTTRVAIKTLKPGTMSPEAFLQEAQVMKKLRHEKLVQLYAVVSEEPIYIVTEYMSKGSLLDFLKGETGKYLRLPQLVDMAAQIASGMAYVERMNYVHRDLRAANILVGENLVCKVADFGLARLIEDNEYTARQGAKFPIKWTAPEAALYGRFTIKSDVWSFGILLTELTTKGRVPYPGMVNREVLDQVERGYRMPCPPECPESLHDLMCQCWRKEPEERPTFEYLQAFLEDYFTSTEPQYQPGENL

PRKD3 = molecular target: T3, PRKD3 (Homo sapiens, UniProt O94806)
T3 sequence (O94806 1-890): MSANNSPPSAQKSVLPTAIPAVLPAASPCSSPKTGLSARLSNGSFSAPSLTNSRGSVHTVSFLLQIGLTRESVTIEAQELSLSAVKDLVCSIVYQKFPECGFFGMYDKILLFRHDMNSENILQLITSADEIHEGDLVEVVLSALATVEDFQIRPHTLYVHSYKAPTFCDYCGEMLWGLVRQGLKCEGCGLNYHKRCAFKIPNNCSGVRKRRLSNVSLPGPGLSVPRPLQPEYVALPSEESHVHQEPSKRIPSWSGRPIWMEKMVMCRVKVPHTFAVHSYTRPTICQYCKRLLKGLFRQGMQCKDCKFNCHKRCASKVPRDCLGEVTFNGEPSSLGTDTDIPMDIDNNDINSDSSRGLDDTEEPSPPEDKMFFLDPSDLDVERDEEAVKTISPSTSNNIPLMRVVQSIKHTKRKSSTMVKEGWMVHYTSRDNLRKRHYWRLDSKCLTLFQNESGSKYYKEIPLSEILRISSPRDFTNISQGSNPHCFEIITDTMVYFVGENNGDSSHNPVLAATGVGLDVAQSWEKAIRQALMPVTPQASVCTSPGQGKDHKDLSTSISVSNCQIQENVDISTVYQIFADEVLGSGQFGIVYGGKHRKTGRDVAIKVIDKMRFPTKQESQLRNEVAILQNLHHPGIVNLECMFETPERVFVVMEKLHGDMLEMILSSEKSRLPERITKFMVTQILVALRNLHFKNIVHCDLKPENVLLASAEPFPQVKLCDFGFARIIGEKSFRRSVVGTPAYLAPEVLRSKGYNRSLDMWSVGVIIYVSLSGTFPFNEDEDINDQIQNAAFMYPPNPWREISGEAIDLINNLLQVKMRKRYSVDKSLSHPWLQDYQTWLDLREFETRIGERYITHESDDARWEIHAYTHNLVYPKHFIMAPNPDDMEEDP

MELK = MELK (Homo sapiens, UniProt Q14680)
Chain of MELK (Q14680 whole entry): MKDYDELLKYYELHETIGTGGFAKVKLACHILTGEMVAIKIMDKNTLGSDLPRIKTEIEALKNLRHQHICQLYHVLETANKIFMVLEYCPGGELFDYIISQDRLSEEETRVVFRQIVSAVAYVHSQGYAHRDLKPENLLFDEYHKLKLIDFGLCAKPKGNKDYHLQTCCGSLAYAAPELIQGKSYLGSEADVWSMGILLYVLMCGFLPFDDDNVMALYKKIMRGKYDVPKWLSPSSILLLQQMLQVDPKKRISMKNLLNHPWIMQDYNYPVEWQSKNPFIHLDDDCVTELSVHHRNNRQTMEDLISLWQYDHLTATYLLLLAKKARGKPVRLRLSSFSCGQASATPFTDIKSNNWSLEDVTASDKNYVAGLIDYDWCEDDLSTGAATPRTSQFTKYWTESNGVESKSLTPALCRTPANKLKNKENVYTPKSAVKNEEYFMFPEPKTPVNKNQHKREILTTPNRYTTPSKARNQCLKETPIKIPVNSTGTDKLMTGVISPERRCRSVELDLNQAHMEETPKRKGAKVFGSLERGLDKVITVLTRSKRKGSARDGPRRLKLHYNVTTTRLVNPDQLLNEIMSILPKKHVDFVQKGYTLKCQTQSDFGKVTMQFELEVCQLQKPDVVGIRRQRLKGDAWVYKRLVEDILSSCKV

## CN(C)CC(O)COc1ccc(Nc2ncc([N+](=O)[O-])c(Nc3ccccc3O)n2)cc1.O=C(O)C(F)(F)F (stereo not drawn) [TCMDC-141399]
MAP2K5
  IC50: > 20000 nM
LYN
  IC50: > 20000 nM
CHEK2
  IC50: 11000 nM
BMP2K
  IC50: > 20000 nM
AXL
  IC50: > 20000 nM
SRC
  IC50: > 20000 nM
PRKD3
  IC50: 9100 nM and 7600 nM
MELK
  IC50: > 20000 nM

## Cl.NCC1(c2nc(-c3ccc(Cl)c(O)c3)c(-c3ccncc3)[nH]2)CCCCC1 [TCMDC-141154]
MAP2K5
  IC50: 880 nM
LYN
  IC50: 1300 nM
CHEK2
  IC50: > 20000 nM
BMP2K
  IC50: > 20000 nM
AXL
  IC50: > 20000 nM
SRC
  IC50: 290 nM
PRKD3
  IC50: 8700 nM
MELK
  IC50: 4700 nM and 4500 nM

## CN1CCN(c2ccc(Nc3ncc(C#N)c(Nc4ccccc4C(N)=O)n3)cc2)CC1.Cl [TCMDC-134116]
MAP2K5
  IC50: 400 nM and 520 nM
LYN
  IC50: 280 nM and 350 nM
CHEK2
  IC50: 170 nM
BMP2K
  IC50: 350 nM and 290 nM
AXL
  IC50: 500 nM and 550 nM
SRC
  IC50: 480 nM and 410 nM
PRKD3
  IC50: 370 nM
MELK
  IC50: 360 nM and 350 nM
